This note sets out measurements from ChEMBL document CHEMBL4334518, “Discovery and Pharmacological Studies of 4-Hydroxyphenyl-Derived Phosphonium Salts Active in a Mouse Model of Visceral Leishmaniasis” (J Med Chem, 2019).

Series [1] concerns Leishmania donovani. Briefly: Antileishmanial activity against Leishmania donovani MHOM/ET/67/HU3 intracellular amastigotes infected in human THP1 cells after 96 hrs by prolong-gold antifade-reagent/DAPI staining based assay. The conditions noted are these: MHOM/ET/67/HU3, THP-1, 96 h. Type of series: functional, organism-based.
Series [2] is described as follows: Selectivity index, ratio of EC50 for cytotoxicity against human MRC5 cells to EC50 for antileishmanial activity against Leishmania donovani MHOM/ET/67/HU3 amastigotes infected in human THP1 cells. The series is classed as toxicity, cell-based. The conditions noted are these: read-out: Ratio EC50.
Series [3] is described as follows: Selectivity index, ratio of EC50 for cytotoxicity against human THP1 cells to EC50 for antileishmanial activity against Leishmania donovani MHOM/ET/67/HU3 amastigotes infected in human THP1 cells. Type of series: toxicity, cell-based. The following applies: read-out: Ratio EC50.
Series [4] concerns Leishmania donovani. Briefly: Antileishmanial activity against Leishmania donovani MHOM/ET/67/HU3 promastigote after 72 hrs by MTT assay. The series is classed as functional, organism-based. The conditions noted are these: MHOM/ET/67/HU3, 72 h.
In the next series the test system is THP-1. Briefly: Cytotoxicity against human THP1 cells assessed as reduction in cell viability after 72 hrs by MTT assay. Type of series: cell-based. The conditions noted are these: THP-1, 72 h.
The next series is described as follows: in vitro. The conditions noted are these: human, microsomes.
In series [5] the test system is Leishmania donovani. In words: Potency index, ratio of amphotericin B EC50 to test compound EC50 for antileishmanial activity against Leishmania […] amastigote infected in THP1 cells. Type of series: functional.
Series [6] concerns Leishmania infantum. In words: Antileishmanial activity against Leishmania infantum LEM 3049 isolate promastigote after 72 hrs by MTT assay. The series is classed as functional, organism-based.
For series [7], the system named is Leishmania infantum. In words: Antileishmanial activity against Sb 3 resistant Leishmania infantum LEM 3329 isolate promastigote after 72 hrs by MTT assay. Type of series: functional, organism-based.
Series [8] has as its system Leishmania infantum. In words: Antileishmanial activity against MIL resistant Leishmania infantum LEM 5159 isolate promastigote after 72 hrs by MTT assay. The series is classed as functional, organism-based.
Series [9] relates to Leishmania infantum. In words: Antileishmanial activity against MIL/paromomycin resistant Leishmania infantum LEM 2126 isolate promastigote after 72 hrs by MTT assay. Type of series: functional, organism-based.
Series [10] concerns Leishmania infantum. Briefly: Antileishmanial activity against Leishmania infantum LEM 3049 isolate intracellular amastigotes infected in human THP1 cells after 96 hrs by prolong-gold antifade-reagent/DAPI staining based assay. Type of series: functional, organism-based. The following applies: THP-1, 96 h.
Series [11] has as its system Leishmania infantum. Briefly: Antileishmanial activity against Sb 3 resistant Leishmania infantum LEM 3329 isolate intracellular amastigotes infected in human THP1 cells after 96 hrs by prolong-gold antifade-reagent/DAPI staining based assay. Type of series: functional, organism-based. The following applies: THP-1, 96 h.
In series [12] the test system is Leishmania infantum. In words: Antileishmanial activity against MIL resistant Leishmania infantum LEM 5159 isolate intracellular amastigotes infected in human THP1 cells after 96 hrs by prolong-gold antifade-reagent/DAPI staining based assay. Type of series: functional, organism-based. The following applies: THP-1, 96 h.
For series [13], the system named is Leishmania infantum. In words: Antileishmanial activity against MIL/paromomycin resistant Leishmania infantum LEM 2126 isolate intracellular amastigotes infected in human THP1 cells after 96 hrs by prolong-gold antifade-reagent/DAPI staining based assay. The conditions noted are these: THP-1, 96 h. The series is classed as functional, organism-based.

pEC50: −log10 of the molar value.

Description for in vitro: Half life in human liver microsomes at 20 to 40 uM measured for 120 mins in presence of NADPH by RP-HPLC analysis

Molecule `COC(=O)c1ccc(OCCCCCCCCCCCCCC[P+](c2ccccc2)(c2ccccc2)c2ccccc2)cc1C` had a pEC50 in the series on Leishmania donovani [1] above 6.00. Moreover, the selectivity ratio in series [2] lay in the range of 2 to 27.
In the series with Leishmania donovani [1], `COC(=O)c1ccc(OCCCCCCCCCC[P+](c2ccccc2)(c2ccccc2)c2ccccc2)cc1O` showed a negative logarithm of the EC50 (pEC50) above 6.00. For the same molecule, in series [3], the selectivity ratio was 2 to 27.
As for `Cc1cc(O)ccc1C(=O)OCCCCCCCCCCCCCC[P+](c1ccccc1)(c1ccccc1)c1ccccn1`, the results for the pEC50 in the series on Leishmania donovani [4], in the series on Leishmania donovani [1] and in the series on THP-1 were 6.74, 6.92 and 5.63, respectively. Moreover, in series [3], the selectivity ratio amounted to 19.6.
On to `O=C(O)Cc1ccccc1Nc1c(Cl)cccc1Cl` [DICLOFENAC], for which the half-life at 2 h, 40 µM in the series “in vitro” is below 30 min.
Turning to `O=C(OCCCCCCCCCCCCCC[n+]1cccc2ccccc21)c1ccc(O)cc1O`, the values for the pEC50 in the series on Leishmania donovani [4] and in the series with Leishmania donovani [1] were above 6.70 and 6.10, respectively. The selectivity ratio in [3] was in the range of 3.7 to 5.
On to `Cc1cc(O)ccc1C(=O)OCCCCCCCCCCCCCC[P+](c1ccccc1)(c1ccccc1)c1ccccc1`, for which the pEC50 is 7.05 in the series with Leishmania donovani [4], 6.82 with Leishmania donovani [1] and 5.74 in the series with THP-1. Further, in series [3], the selectivity ratio was 12.3.
Consider `O=C(OCCCCCCCCCCCCCC[P+](c1ccccc1)(c1ccccc1)c1ccccc1)c1ccc(O)cc1O`, for which the pEC50 in the series with Leishmania donovani [4] is 7.40; with Leishmania donovani [1], 6.96; with THP-1, 5.52. The selectivity ratio in [3] worked out at 27.6.
As to `Cc1cc(O)ccc1C(=O)CCCCCCCCCCCCCCC[P+](c1ccccc1)(c1ccccc1)c1ccccc1.[Br-]`, the pEC50 in the series on Leishmania donovani [4] was 7.05; with Leishmania donovani [1] it was 7.00; in the series with THP-1, 5.61. Further, in [3], the selectivity ratio was found to be 24.5. Besides, the “Ratio EC50” value with Leishmania donovani [5] was found to be 2.
Consider `OCCCCCCCCCCCCCC[P+](c1ccccc1)(c1ccccc1)c1ccccc1`, for which the pEC50 in the series with Leishmania donovani [4] was 6.48; in the series with Leishmania donovani [1], 6.46; in the series on THP-1 it was 5.52. Also, the selectivity ratio in [3] amounted to 8.7.
For the molecule `O=Cc1ccc(OCCCCCCCCCCCCCC[n+]2cccc3ccccc32)cc1O`, in the series with Leishmania donovani [1], the pEC50 was 6.10. The selectivity ratio in series [3] fell in the range of 3.7 to 5.
For the molecule `O=C(OCCCCCCCCCCCC[P+](c1ccccc1)(c1ccccc1)c1ccccc1)c1ccc(O)cc1O`, the pEC50 in the series with Leishmania donovani [4] and with Leishmania donovani [1] was above 6.00 each time. Besides, in series [3], the selectivity ratio is above 10.
`Cc1cc(O)ccc1C(=O)CCCCCCCCCCCCCCC[P+](c1ccccc1)(c1ccccc1)c1ccccn1.[Br-]`: the pEC50 with Leishmania donovani [4] is 6.55; in the series on Leishmania donovani [1], 7.00; in the series on THP-1, 5.68. Also, in [3], the selectivity ratio was 21.1. The “Ratio EC50” value in the series on Leishmania donovani [5] amounted to 2.
For `CCCCCCCCCCCCCCCCOP(=O)([O-])OCC[N+](C)(C)C` [MILTEFOSINE], the pEC50 is 5.19 in the series with Leishmania donovani [4], 6.04 in the series with Leishmania donovani [1] and 4.58 with THP-1. Also, the selectivity ratio in [3] stood at 28.8.
In turn, `CCOC(=O)c1c(C)cc(OCCCCCCCCCCCCCC[P+](c2ccccc2)(c2ccccc2)c2ccccc2)cc1O` gave a pEC50 with Leishmania donovani [1] above 6.00. In addition, the selectivity ratio in [2] was 2 to 27.
Consider `O=C(O)c1ccc(OCCCCCCCCCCCCCC[P+](c2ccccc2)(c2ccccc2)c2ccccc2)cc1O`, for which the pEC50 in the series on Leishmania donovani [4] and with Leishmania donovani [1] was above 6.70 each time. Further, in series [2], the selectivity ratio fell in the range of 2 to 27.
Take `O=C(OCCCCCCCCCCCC[n+]1cccc2ccccc21)c1ccc(O)cc1O`: the pEC50 was above 6.70 in the series with Leishmania donovani [4] and 6.10 in the series with Leishmania donovani [1]. Moreover, the selectivity ratio in [3] is 3.7 to 5.
As to `O=C(O)c1ccc(OCCCCCCCCCC[P+](c2ccccc2)(c2ccccc2)c2ccccc2)cc1O`, the pEC50 in the series with Leishmania donovani [4] and in the series with Leishmania donovani [1] was above 6.70 throughout. Besides, the selectivity ratio in series [2] was in the range of 2 to 27.
`O=Cc1ccc(OCCCCCCCCCCCCCC[P+](c2ccccc2)(c2ccccc2)c2ccccc2)cc1O`: the pEC50 in the series on Leishmania donovani [1] was above 6.00. The selectivity ratio in [3] was 2 to 27.
Take `C[C@@H]1[C@H](O)[C@@H](C)/C=C/C=C/C=C/C=C/C=C/C=C/C=C/[C@H](O[C@@H]2O[C@H](C)[C@@H](O)[C@H](N)[C@@H]2O)C[C@@H]2O[C@](O)(C[C@@H](O)C[C@@H](O)[C@H](O)CC[C@@H](O)C[C@@H](O)CC(=O)O[C@H]1C)C[C@H](O)[C@H]2C(=O)O` [AMPHOTERICIN B]: the pEC50 was 6.89 in the series on Leishmania donovani [4]; 6.62 in the series with Leishmania donovani [1]; 4.56 in the series on THP-1; 7.22 in the series with Leishmania infantum [6]; 7.15 with Leishmania infantum [7]; 7.30 with Leishmania infantum [8]. Besides, the pEC50 in the series with Leishmania infantum [9] was 7.00; with Leishmania infantum [10], 6.77; in the series on Leishmania infantum [11] it was 6.74; with Leishmania infantum [12], 6.80; with Leishmania infantum [13] it was 6.80. Moreover, the selectivity ratio in [3] amounted to 116.
